US6936597B2, “Prodrugs of anticancer agents employing substituted aromatic acids” (priority 2001, dated 2005)

Assays:
[1] = test system: P388/O (murine lymphoid neoplasm) cell line; assay: In vitro bioassay, cell growth by Alamar Blue; type: cell-based; details: P388/O cells, three days, 37° C., in duplicate, SD ±10%
Description: A series of in vitro assays were conducted to determine the IC50 for unmodified Ara-C and compound 10 using the P388/O (murine lymphoid neoplasm, Southern Research Institute) cell line. The P388/0 cells were grown in RPMI 1640 medium (Whittaker Bioproducts, Walkersville, Md.)+10% FBS (Hyclone Inc., Logan Utah). Bioassays were performed in their respective media containing antibiotics and fungizone.
Ara-C was dissolved in DMSO and diluted to the appropriate concentration in culture media. The individual PEG-Ara-C compound was dissolved in water and diluted to the appropriate concentrations in culture media.
The assays were performed in duplicate in 96-well microtiter cell culture plates. Two fold serial dilution of the compounds were done in the microtiter plates. Cells were detached by incubating with 0.1% Trypsin/Versene at 37°. Trypsin was inactivated by adding the appropriate media for each cell line containing 10% FBS. To each well of the microtiter plates, 10,000 cells were added. After three days, cell growth was measured by addition of a metabolic indicator dye, Alamar Blue, according to the manufacturer's protocol. The IC50 value for the test compound and reference compound are provided above in the Table.

[2] = test system: LX-1 (solid human lung Tumor); assay: LX-1 tumor xenograft in athymic nude mice; type: in vivo; details: when control median tumor volume reached 1000 mm^3
Description: All PEG conjugated compounds were dissolved (˜15 mg/mL) in sterile saline (0.9%) for injection prior to in vivo drug treatments and were given as their ara-C equivalents (absolute amount of ara-C given).
Athymic nude mice were implanted subcutaneous with a 4-5 mm^3 tissue fragment of LX-1 (solid human lung Tumor) collected from donor mice. The tumor trocar site was observed twice weekly and measured once palpable. The tumor volume for each mouse was determined by measuring two dimensions with calipers and calculated using the formula: tumor volume=(length×width^2)/2. […] The mice were sorted to evenly distribute tumor size, grouped into 4 to 6 mice/group, and ear punched for permanent identification. Drugs were administered intravenously q3d×4 (Day 1, 4, 7 and 10) via the tail vein at an approximate rate of 0.5 mL per minute.

[3] = Half-life in rat plasma, measured by disappearance of PEG derivatives; type: in vitro ADME; details: 37° C., in duplicate, SD ±10%

Nc1ccn([C@@H]2O[C@H](CO)[C@@H](O)[C@@H]2O)c(=O)n1 [Ara-C, cytosine arabinoside, reference compound]
IC50 [1]: 10 nM | % Tumor Growth Inhibition ([2]; 100 mg/kg i.v. q3d×4, LX-1 in nude mice): 26.2%

PEG ara-C 4-aminobenzenamide [Compound 6b]
t1/2 (h) Rat Plasma [3]: 75 h | IC50 [1]: 1190 nM | % Tumor Growth Inhibition ([2]; 20 mg/kg (ara-C equivalents) i.v. q3d×4, LX-1 in nude mice): 12.3%

PEG ara-C 4-aminomethylbenzenamide [Compound 6a]
t1/2 (h) Rat Plasma [3]: 65 h | IC50 [1]: 122 nM
